Measured values: ChEMBL document CHEMBL5608163, “Structure modification of anoplin for fighting resistant bacteria” (Eur J Med Chem, 2024)
In brackets after ≈: the same amount, converted by molar mass. Square brackets hold non-standard residues; d marks the D form. Peptide text beside a SMILES is read from it. βAla = NCCC(=O)O

Key:
Staphylococcus aureus [1] = assay: Antibacterial activity against Staphylococcus aureus ATCC 25923 assessed as reduction in bacterial growth incubated for 18 to 20 hrs by Mueller Hinton broth dilution method; assay type: functional; details: time 18-20 hrs
Bacillus subtilis = assay: Antibacterial activity against Bacillus subtilis ATCC 23857 assessed as reduction in bacterial growth incubated for 18 to 20 hrs by Mueller Hinton broth dilution method; assay type: functional; details: time 18-20 hrs
Escherichia coli [2] = assay: Antibacterial activity against Escherichia coli ATCC 25922 assessed as reduction in bacterial growth incubated for 18 to 20 hrs by Mueller Hinton broth dilution method; assay type: functional; details: time 18-20 hrs
Pseudomonas aeruginosa [3] = assay: Antibacterial activity against Pseudomonas aeruginosa ATCC 27853 assessed as reduction in bacterial growth incubated for 18 to 20 hrs by Mueller Hinton broth dilution method; assay type: functional; details: time 18-20 hrs
Klebsiella pneumoniae [4] = assay: Antimicrobial activity against Klebsiella pneumoniae assessed as reduction in bacterial growth incubated for 18 to 20 hrs by Mueller-Hinton broth based microdilution method; assay type: functional; details: time 18-20 hrs
Erythrocyte [5] = assay: Hemolytic activity in mouse Red blood cells incubated for 1 hr by microplate reader assay; assay type: toxicity, cell-based; details: erythrocyte, 1 h
Staphylococcus aureus [6] = assay: Antibacterial activity against Staphylococcus aureus ATCC 25923 assessed as reduction in bacterial cell growth incubated for 18 hrs by two fold serial microdilution method; assay type: functional
[7] = system: Staphylococcus epidermidis; assay: Antibacterial activity against Staphylococcus epidermidis ATCC 12228 assessed as reduction in bacterial cell growth incubated for 18 hrs by two fold serial microdilution method; assay type: functional
Escherichia coli [8] = assay: Antibacterial activity against Escherichia coli ATCC 25922 assessed as reduction in bacterial cell growth incubated for 18 hrs by two fold serial microdilution method; assay type: functional
Pseudomonas aeruginosa [9] = assay: Antibacterial activity against Pseudomonas aeruginosa ATCC 27853 assessed as reduction in bacterial cell growth incubated for 18 hrs by two fold serial microdilution method; assay type: functional
Klebsiella pneumoniae [10] = assay: Antibacterial activity against Klebsiella pneumoniae ATCC 700603 assessed as reduction in bacterial cell growth incubated for 18 hrs by two fold serial microdilution method; assay type: functional
Acinetobacter baumannii = assay: Antibacterial activity against Acinetobacter baumannii ATCC 19606 assessed as inhibition in bacterial growth incubated for 20 to 24 hrs by CLSI based broth microdilution method; assay type: functional; details: time 20-24 hrs
Erythrocyte [11] = assay: Hemolytic activity in mouse Red blood cells incubated for 1 hr; assay type: toxicity, cell-based

SMILES | MIC (Staphylococcus aureus [6]) [µM] | MIC [7] [µM] | MIC (Escherichia coli [8]) [µM] | MIC (Pseudomonas aeruginosa [9]) [µM] | MIC (Klebsiella pneumoniae [10]) [µM] | MIC (Acinetobacter baumannii) [µM] | MIC (Staphylococcus aureus [1]) [µM] | MIC (Bacillus subtilis) [µM] | MIC (Escherichia coli [2]) [µM] | MIC (Pseudomonas aeruginosa [3]) [µM] | MIC (Klebsiella pneumoniae [4]) [µM] | HC10 (Erythrocyte [5]) [µM] | HC10 (Erythrocyte [11]) [µM]
CC[C@H](C)[C@H](NC(=O)[C@H](CCCNC(=N)N)NC(=O)[C@H](CCCCN)NC(=O)[C@H](CC(C)C)NC(=O)[C@@H](CC(C)C)NC(=O)CN)C(=O)N[C@@H](CCCCN)C(=O)N[C@H](C(=O)N[C@@H](CC(C)C)C(=O)N[C@H](CC(C)C)C(N)=O)[C@@H](C)O |  |  |  |  |  |  | > 256 | 64 (≈ 73.8 µg/mL) | 128 (≈ 148 µg/mL) | 64 (≈ 73.8 µg/mL) | > 256 | > 300 | 
CC[C@H](C)[C@H](NC(=O)[C@H](CCCNC(=N)N)NC(=O)[C@@H](CCCCN)NC(=O)[C@H](CC(C)C)NC(=O)[C@H](CC(C)C)NC(=O)CN)C(=O)N[C@H](CCCCN)C(=O)N[C@H](C(=O)N[C@@H](CC(C)C)C(=O)N[C@@H](CC(C)C)C(N)=O)[C@@H](C)O |  |  |  |  |  |  | > 256 | 64 (≈ 73.8 µg/mL) | 256 (≈ 295 µg/mL) | 64 (≈ 73.8 µg/mL) | 256 (≈ 295 µg/mL) | > 300 | 
CC[C@H](C)[C@H](NC(=O)[C@H](CCCNC(=N)N)NC(=O)[C@H](CCCCN)NC(=O)[C@H](CC(C)C)NC(=O)[C@H](CC(C)C)NC(=O)CN)C(=O)N[C@@H](CCCCN)C(=O)N[C@H](C(=O)N[C@H](CC(C)C)C(=O)N[C@H](CC(C)C)C(N)=O)[C@@H](C)O |  |  |  |  |  |  | 64 (≈ 73.8 µg/mL) | 8 (≈ 9.23 µg/mL) | 256 (≈ 295 µg/mL) | 8 (≈ 9.23 µg/mL) | 128 (≈ 148 µg/mL) | > 300 | 
CC[C@H](C)[C@H](NC(=O)[C@@H](CCCNC(=N)N)NC(=O)[C@H](CCCCN)NC(=O)[C@H](CC(C)C)NC(=O)[C@H](CC(C)C)NC(=O)CN)C(=O)N[C@H](CCCCN)C(=O)N[C@H](C(=O)N[C@@H](CC(C)C)C(=O)N[C@@H](CC(C)C)C(N)=O)[C@@H](C)O |  |  |  |  |  |  | > 256 | 32 (≈ 36.9 µg/mL) | 256 (≈ 295 µg/mL) | 32 (≈ 36.9 µg/mL) | 256 (≈ 295 µg/mL) | > 300 | 

Now from value to compound, other results behind:

MIC (Staphylococcus aureus [6]) [µM] | MIC [7] [µM] | MIC (Escherichia coli [8]) [µM] | MIC (Pseudomonas aeruginosa [9]) [µM] | MIC (Klebsiella pneumoniae [10]) [µM] | MIC (Acinetobacter baumannii) [µM] | SMILES | MIC (Staphylococcus aureus [1]) [µM] | MIC (Bacillus subtilis) [µM] | MIC (Escherichia coli [2]) [µM] | MIC (Pseudomonas aeruginosa [3]) [µM] | MIC (Klebsiella pneumoniae [4]) [µM] | HC10 (Erythrocyte [5]) [µM] | HC10 (Erythrocyte [11]) [µM]
> 128 | > 128 | > 128 | 32 (≈ 35.6 µg/mL) | > 128 | > 128 | CC[C@H](C)[C@H](NC(=O)[C@H](CCCNC(=N)N)NC(=O)[C@H](CCCCN)NC(=O)CCNC(=O)[C@H](CC(C)C)NC(=O)CN)C(=O)N[C@@H](CCCCN)C(=O)N[C@H](C(=O)N[C@@H](CC(C)C)C(=O)N[C@@H](CC(C)C)C(N)=O)[C@@H](C)O (H-GL[βAla]KRIKTLL-NH2) |  |  |  |  |  |  | > 256
> 128 | 64 (≈ 70.2 µg/mL) | 128 (≈ 140 µg/mL) | 32 (≈ 35.1 µg/mL) | > 128 | > 128 | CC[C@H](C)[C@H](NC(=O)[C@H](CCCNC(=N)N)NC(=O)CCNC(=O)[C@H](CC(C)C)NC(=O)[C@H](CC(C)C)NC(=O)CN)C(=O)N[C@@H](CCCCN)C(=O)N[C@H](C(=O)N[C@@H](CC(C)C)C(=O)N[C@@H](CC(C)C)C(N)=O)[C@@H](C)O (H-GLL[βAla]RIKTLL-NH2) |  |  |  |  |  |  | > 256
128 (≈ 144 µg/mL) | 16 (≈ 18 µg/mL) | 32 (≈ 36 µg/mL) | 4 (≈ 4.49 µg/mL) | 128 (≈ 144 µg/mL) | > 128 | CC[C@H](C)[C@H](NC(=O)[C@H](CCCNC(=N)N)NC(=O)[C@H](CCCCN)NC(=O)[C@H](CC(C)C)NC(=O)[C@H](CC(C)C)NC(=O)CN)C(=O)N[C@@H](CCCCN)C(=O)NCCC(=O)N[C@@H](CC(C)C)C(=O)N[C@@H](CC(C)C)C(N)=O (H-GLLKRIK[βAla]LL-NH2) |  |  |  |  |  |  | > 256
128 (≈ 149 µg/mL) | 8 (≈ 9.34 µg/mL) | 32 (≈ 37.4 µg/mL) | 8 (≈ 9.34 µg/mL) | 128 (≈ 149 µg/mL) | 128 (≈ 149 µg/mL) | CC[C@H](C)[C@H](NC(=O)[C@H](CCCNC(=N)N)NC(=O)[C@H](CCCCN)NC(=O)[C@H](CC(C)C)NC(=O)[C@H](CC(C)C)NC(=O)CCN)C(=O)N[C@@H](CCCCN)C(=O)N[C@H](C(=O)N[C@@H](CC(C)C)C(=O)N[C@@H](CC(C)C)C(N)=O)[C@@H](C)O (H-[βAla]LLKRIKTLL-NH2) |  |  |  |  |  |  | > 256
> 128 | > 128 | > 128 | > 128 | > 128 | > 128 | CC[C@H](C)[C@H](NC(=O)[C@H](CCCNC(=N)N)NC(=O)[C@H](CCCCN)NC(=O)[C@H](CC(C)C)NC(=O)[C@H](CC(C)C)NC(=O)CN)C(=O)N[C@@H](CCCCN)C(=O)N[C@H](C(=O)NCCC(=O)N[C@@H](CC(C)C)C(N)=O)[C@@H](C)O (H-GLLKRIKT[βAla]L-NH2) |  |  |  |  |  |  | > 256
